The record followed here is patent US20240174649A1, “CULLIN-RING E3 UBIQUITIN LIGASE 4 INHIBITOR COMPOUNDS AND METHODS OF THEIR USE” (ICAHN SCHOOL OF MEDICINE AT MOUNT SINAI, priority 2021, published 2024).

SMILES strings stand for the structures.

Test [1] deals with E3 (CUL4) (Homo sapiens (Human), UniProt Q13619). Nature of the test: E3 (CUL4) inhibition (Table 1). Type of test: biochemical. Here is the method: The reaction was incubated for 5 min at 37° C. […] The reaction was incubated for 5 min at room temperature. In the second step (chase), the completed Cdc34b-Ub thiol ester reaction mixture was combined with one third of the completed mono-ubiquitination mixture. The final volume was adjusted to 10 μl with a mix that contained 50 mM Tris-HCl (pH 7.4), 0.5 mM DTT, 0.1 mg/ml of BSA, 5 mM MgCl2, and 2 mM ATP. Compounds were added where indicated. The chase reaction was incubated for 10 min at 37° C. The reaction products were separated by 4-20% SDS-polyacrylamide gel electrophoresis. The reaction scheme was identical to the one described above for FIGS. 12A-B. […] The reaction products, separated by SDS-PAGE, were visualized and analyzed by phospho-imaging using Typhoon 9500 scanner.

For test [2], the system named is cancer cells. Nature of the test: Apoptosis, Annexin V flow cytometry. Format: cell-based. Conditions: Table 1. Here is the method:
Cells (5×10^4) were seeded 24 hours before compound treatment. Compound was added to the culture media and cells were cultured with the compound for 48 hours. The treated cells were then transferred into 5 ml flow cytometry tubes and the well was washed once with PBS to collect any remaining cells. The cells were then pelleted at 500×g for 5 min with a Beckman CS-6KR centrifuge at 4° C. After removal of supernatant, the cells pellet was washed with Annexin V binding buffer (10 mM Hepes-NaOH, pH 7.4, 150 mM NaCl, 5 mM KCl, 1 mM MgCl2, and 1.8 mM CaCl2). Cells were pelleted once again and incubated in the dark with Annexin V-FITC (2 μg/ml) in binding buffer for 5 min then analyzed using LSRFortessa flow cytometer (BD).
Background: Flow cytometry measures light scatter and fluorescence of single cells or particles in a stream.

The target in test [3] is E3 (CUL1) (Homo sapiens (Human), UniProt Q13616). As to the kind of experiment: E3 (CUL1) inhibition (Table 1). Format: biochemical. As to the method: The reaction mixture (15 μl) was assembled onto a 384-well microtiter plate. […] ATP (0.66 mM) was then added to the mix followed by a brief centrifugation to settle down the mixture. The resulting plate was incubated at 30° C. in the Synergy-H1 reader and the fluorescence signal was monitored. Ubiquitination was quantified based on the ratio of acceptor:donor fluorescence (excitation 515 nm; donor emission 570 nm, acceptor emission 670 nm).
Sequence of E3 (CUL1) (Q13616 whole entry): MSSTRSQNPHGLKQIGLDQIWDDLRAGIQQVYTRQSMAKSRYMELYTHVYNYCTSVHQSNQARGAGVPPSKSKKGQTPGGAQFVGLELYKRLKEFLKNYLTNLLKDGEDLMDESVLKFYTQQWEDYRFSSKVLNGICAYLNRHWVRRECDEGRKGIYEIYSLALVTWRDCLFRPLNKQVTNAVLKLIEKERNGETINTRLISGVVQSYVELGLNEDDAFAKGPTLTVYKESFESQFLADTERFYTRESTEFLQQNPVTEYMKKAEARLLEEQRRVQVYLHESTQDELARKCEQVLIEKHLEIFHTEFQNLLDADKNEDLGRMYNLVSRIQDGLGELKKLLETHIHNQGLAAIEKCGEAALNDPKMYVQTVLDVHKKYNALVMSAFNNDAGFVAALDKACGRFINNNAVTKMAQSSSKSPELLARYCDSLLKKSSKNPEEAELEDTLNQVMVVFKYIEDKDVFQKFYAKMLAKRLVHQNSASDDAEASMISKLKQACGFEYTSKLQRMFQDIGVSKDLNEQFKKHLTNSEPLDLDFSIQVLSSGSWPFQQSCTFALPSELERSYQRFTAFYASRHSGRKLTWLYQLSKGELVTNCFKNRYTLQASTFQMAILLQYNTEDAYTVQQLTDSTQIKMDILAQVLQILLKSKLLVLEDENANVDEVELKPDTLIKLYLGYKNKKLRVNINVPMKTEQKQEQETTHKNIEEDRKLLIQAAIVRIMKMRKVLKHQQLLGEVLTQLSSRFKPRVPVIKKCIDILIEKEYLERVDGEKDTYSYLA
Sequence of E3 (CUL1) (P62877 whole entry partner): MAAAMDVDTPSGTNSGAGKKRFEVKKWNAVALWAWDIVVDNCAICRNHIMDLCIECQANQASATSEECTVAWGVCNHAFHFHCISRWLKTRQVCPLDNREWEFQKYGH

Sequence of E3 (CUL4) (Q13619 whole entry): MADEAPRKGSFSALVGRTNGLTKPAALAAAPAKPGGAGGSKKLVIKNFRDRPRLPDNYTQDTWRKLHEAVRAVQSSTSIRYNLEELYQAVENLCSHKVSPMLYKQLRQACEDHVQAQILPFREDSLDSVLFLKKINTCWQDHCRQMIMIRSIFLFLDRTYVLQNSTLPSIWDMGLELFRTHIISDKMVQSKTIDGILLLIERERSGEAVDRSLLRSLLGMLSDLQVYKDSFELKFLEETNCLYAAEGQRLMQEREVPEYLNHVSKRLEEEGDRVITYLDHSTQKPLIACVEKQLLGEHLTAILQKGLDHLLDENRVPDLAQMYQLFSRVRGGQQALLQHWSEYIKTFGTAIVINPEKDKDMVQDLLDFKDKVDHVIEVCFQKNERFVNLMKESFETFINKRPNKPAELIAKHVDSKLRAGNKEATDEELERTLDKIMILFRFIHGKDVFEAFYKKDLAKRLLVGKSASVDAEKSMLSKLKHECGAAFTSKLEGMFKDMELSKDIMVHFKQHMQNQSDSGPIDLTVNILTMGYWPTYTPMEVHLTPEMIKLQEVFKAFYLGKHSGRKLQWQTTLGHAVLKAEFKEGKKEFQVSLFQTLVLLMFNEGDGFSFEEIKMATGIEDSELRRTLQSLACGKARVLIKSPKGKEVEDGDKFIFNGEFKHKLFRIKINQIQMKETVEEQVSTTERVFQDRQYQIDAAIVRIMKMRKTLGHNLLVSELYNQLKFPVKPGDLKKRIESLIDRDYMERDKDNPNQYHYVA
Sequence of E3 (CUL4) (P62877 whole entry partner): as the sequence (P62877 whole entry partner) above

As a reminder, the EC50 is the concentration that produces a half-maximal response. Take `O=c1c(-c2cnn(-c3ccc(Cl)c(Cl)c3)c2)c(C(F)(F)F)oc2c(O)c(O)ccc12` [KH-4-99]: the results for the EC50 in test [1] and in test [2] were around 10 µM and 9 µM, respectively.
`CCCn1cc(-c2c(C(F)(F)F)oc3c(OC)c(OC)ccc3c2=O)cn1` [MSSM-RJD-MM-004]: the EC50 in test [1] is above 10 µM; in test [3] it was above 100 µM; in test [2] it was above 20 µM.
On to `NC(=O)c1ccccc1-n1cc(-c2c(C(F)(F)F)oc3c(O)c(O)ccc3c2=O)cn1` [KH-4-44], for which, in test [1], the “E3 (CUL4) Inhibition EC50” value is “Inactive”. Further, the EC50 in test [3] stood at 10 µM.
As for `O=c1c(-c2cnn(-c3cccnc3)c2)c(C(F)(F)F)oc2c(O)c(O)ccc12` [KH-4-67], the “E3 (CUL4) Inhibition EC50” value in test [1] is on record as “Inactive”. Besides, the “E3 (CUL1) Inhibition EC50” value in test [3] was “Inactive”.
As for `COc1ccc2c(=O)c(-c3cnn(Cc4cc(F)ccc4C(F)(F)F)c3)c(C(F)(F)F)oc2c1OC` [MSSM-RJD-MM-021, 3-(1-(5-fluoro-2-(trifluoromethyl)benzyl)-1H-pyrazol-4-yl)-7,8-dimethoxy-2-(trifluoromethyl)-4H-chromen-4-one], the figures for the EC50 in test [1], in test [3] and in test [2] were above 10 µM, 66 µM and around 20 µM, respectively.
In the case of `O=c1c(-c2cnn(-c3ccccc3)c2)c(C(F)(F)F)oc2c(OS(=O)(=O)C(F)(F)F)c(O)ccc12` [KH-4-136], the “E3 (CUL4) Inhibition EC50” value in test [1] is recorded as “Inactive”. Further, the “Apoptosis EC50” value in test [2] is listed as “Inactive”.
As for `O=c1c(-c2cnn(-c3cc(Cl)cc(Cl)c3)c2)c(C(F)(F)F)oc2c(O)c(O)ccc12` [KH-4-116], the EC50 in test [1] was around 10 µM; in test [2], 6 µM.
On to `CC(=O)Oc1ccc2c(=O)cc(C(F)(F)F)oc2c1OC(C)=O` [KH-3-12], for which the figures for the EC50 in test [1] and in test [3] were above 75 µM and 32 µM, respectively.
Turning to `O=c1c(-c2cnn(Cc3cc(C(F)(F)F)ccc3Cl)c2)c(C(F)(F)F)oc2c(O)c(O)ccc12` [MSSM-RJD-MM-027, 3-(1-(2-chloro-5-(trifluoromethyl)benzyl)-1H-pyrazol-4-yl)-7,8-dihydroxy-2-(trifluoromethyl)-4H-chromen-4-one], the EC50 in test [1] is above 10 µM; in test [3] it was 5.6 µM; in test [2] it was 10 to 20 µM.
Regarding `O=c1c(-c2cnn(Cc3cccc(F)c3)c2)c(C(F)(F)F)oc2c(O)c(O)ccc12` [MSSM-RJD-MM-024, 3-(1-(3-fluorobenzyl)-1H-pyrazol-4-yl)-7,8-dihydroxy-2-(trifluoromethyl)-4H-chromen-4-one], the figures for the EC50 in test [1], in test [3] and in test [2] were above 10 µM, 7.9 µM and 10 to 20 µM, respectively.
As for `CCCn1cc(-c2c(C(F)(F)F)oc3c(O)c(O)ccc3c2=O)cn1` [MSSM-RJD-MM-008, 7,8-dihydroxy-3-(1-propyl-1H-pyrazol-4-yl)-2-(trifluoromethyl)-4H-chromen-4-one], the EC50 is above 10 µM in test [1], 4 µM in test [3] and above 20 µM in test [2].
With `O=c1c(-c2cnn(Cc3ccc(C(F)(F)F)cc3)c2)c(C(F)(F)F)oc2c(O)c(O)ccc12` [MSSM-RJD-MM-014, 7,8-dihydroxy-2-(trifluoromethyl)-3-(1-(4-(trifluoromethyl)benzyl)-1H-pyrazol-4-yl)-4H-chromen-4-one], the EC50 in test [1] is around 10 µM; in test [3], 5.4 µM; in test [2] it was around 8 µM.
The matching figures for `O=c1c(-c2cnn(Cc3ccc(F)cc3)c2)c(C(F)(F)F)oc2c(O)c(O)ccc12` [MSSM-RJD-MM-013, 3-(1-(4-fluorobenzyl)-1H-pyrazol-4-yl)-7,8-dihydroxy-2-(trifluoromethyl)-4H-chromen-4-one]: above 30 µM, 7.2 µM and above 20 µM.
On to `O=c1c(-c2cnn(-c3ccc(Cl)cc3Cl)c2)c(C(F)(F)F)oc2c(O)c(O)ccc12` [KH-4-98], for which the results for the EC50 in test [1] and in test [2] were around 10 µM and 9 µM, respectively.
As for `Nc1cccc(-n2cc(-c3c(C(F)(F)F)oc4c(O)c(O)ccc4c3=O)cn2)c1` [KH-4-78], the EC50 in test [1] was above 14 µM. Also, the “Apoptosis EC50” value in test [2] is given as “Inactive”.
Consider `O=c1c(-c2cnn(-c3cccc(F)c3)c2)c(C(F)(F)F)oc2c(O)c(O)ccc12` [KH-4-41], for which the EC50 in test [1] was around 14 µM; in test [3], 5 µM; in test [2], 9 µM.
For `CCn1cc(-c2c(C(F)(F)F)oc3c(OC)c(OC)ccc3c2=O)cn1` [MSSM-RJD-MM-005] the same measures were above 10 µM, above 100 µM and above 20 µM.
`COc1cccc(Cn2cc(-c3c(C(F)(F)F)oc4c(OC)c(OC)ccc4c3=O)cn2)c1` [MSSM-RJD-MM-018, 7,8-dimethoxy-3-(1-(3-methoxybenzyl)-1H-pyrazol-4-yl)-2-(trifluoromethyl)-4H-chromen-4-one]: the EC50 was above 10 µM in test [1] and above 100 µM in test [3].
The matching figures for `N#Cc1cccc(-n2cc(-c3c(C(F)(F)F)oc4c(O)c(O)ccc4c3=O)cn2)c1` [KH-4-66]: above 14 µM and 9 µM.
For `CCCCn1cc(-c2c(C(F)(F)F)oc3c(OC)c(OC)ccc3c2=O)cn1` [MSSM-RJD-MM-002, 3-(1-butyl-1H-pyrazol-4-yl)-7,8-dimethoxy-2-(trifluoromethyl)-4H-chromen-4-one], the EC50 in test [1] was above 10 µM; in test [3], 96 µM; in test [2], above 20 µM.
`COc1ccc2c(=O)c(-c3cnn(Cc4ccc(Cl)cc4)c3)c(C(F)(F)F)oc2c1OC` [MSSM-RJD-MM-001, 3-(1-(4-chlorobenzyl)-1H-pyrazol-4-yl)-7,8-dimethoxy-2-(trifluoromethyl)-4H-chromen-4-one]: the values for the EC50 in test [1], in test [3] and in test [2] were above 10 µM, above 100 µM and above 20 µM, respectively.
In the case of `COc1ccc2c(=O)c(-c3cnn(Cc4cccc(Cl)c4)c3)c(C(F)(F)F)oc2c1OC` [MSSM-RJD-MM-017, 3-(1-(3-chlorobenzyl)-1H-pyrazol-4-yl)-7,8-dimethoxy-2-(trifluoromethyl)-4H-chromen-4-one], the EC50 was above 10 µM in test [1] and 82 µM in test [3].
Take `O=c1c(-c2cnn(Cc3cccc(Cl)c3)c2)c(C(F)(F)F)oc2c(O)c(O)ccc12` [MSSM-RJD-MM-023, 3-(1-(3-chlorobenzyl)-1H-pyrazol-4-yl)-7,8-dihydroxy-2-(trifluoromethyl)-4H-chromen-4-one]: the values for the EC50 in test [1], in test [3] and in test [2] were above 10 µM, 8.4 µM and 10 to 20 µM, respectively.
For `O=c1c(-c2cnn(Cc3ccc(Cl)cc3)c2)c(C(F)(F)F)oc2c(O)c(O)ccc12` [MSSM-RJD-MM-006, 3-(1-(4-chlorobenzyl)-1H-pyrazol-4-yl)-7,8-dihydroxy-2-(trifluoromethyl)-4H-chromen-4-one] the same measures were above 10 µM, 7.6 µM and above 20 µM.
The matching figures for `COc1ccc2c(=O)c(-c3cnn(Cc4ccc(F)cc4)c3)c(C(F)(F)F)oc2c1OC` [MSSM-RJD-MM-010, 3-(1-(4-fluorobenzyl)-1H-pyrazol-4-yl)-7,8-dimethoxy-2-(trifluoromethyl)-4H-chromen-4-one]: above 10 µM, above 100 µM and above 20 µM.
`O=c1c(-c2cnn(-c3ccccc3Cl)c2)c(C(F)(F)F)oc2c(O)c(O)ccc12` [KH-4-88]: the EC50 in test [1] is above 14 µM; in test [2], 26 µM.
`O=c1c(-c2cnn(-c3ccc(C(F)(F)F)cc3)c2)c(C(F)(F)F)oc2c(O)c(O)ccc12` [KH-3-150]: the results for the concentration for a half-maximal effect (EC50) in test [1], in test [3] and in test [2] were above 14 µM, 9.3 µM and 6 µM, respectively.
Consider `O=c1c(-c2cnn(-c3cccc(C(F)(F)F)c3)c2)c(C(F)(F)F)oc2c(O)c(O)ccc12` [KH-4-65], for which the values for the EC50 in test [1] and in test [3] were above 14 µM and 8 µM, respectively.
Turning to `O=c1cc(C(F)(F)F)oc2c(O)c(O)ccc12` [KH-3-50], in test [1], the “E3 (CUL4) Inhibition EC50” value is “Inactive”. Further, in test [3], the EC50 turned out to be 4.9 µM.
`COc1ccc2c(=O)c(-c3cnn(Cc4cccc(C)c4)c3)c(C(F)(F)F)oc2c1OC` [MSSM-RJD-MM-019]: the values for the concentration giving a half-maximal response (EC50) in test [1] and in test [3] were above 10 µM and 92 µM, respectively.
`O=c1c(-c2cnn(-c3ccccc3)n2)c(C(F)(F)F)oc2c(O)c(O)ccc12` [KH-5-09] displayed an EC50 in test [1] above 14 µM.
Regarding `O=c1ccoc2c(O)c(O)ccc12` [KH-3-49], the results for the EC50 in test [1] and in test [3] were above 75 µM and 11 µM, respectively.
With `O=c1c(-c2cnn(-c3ccc(F)cc3)c2)c(C(F)(F)F)oc2c(O)c(O)ccc12` [KH-3-174], the EC50 in test [1] was above 14 µM; in test [3], 8 µM.
For the compound `Cc1cccc(-n2cc(-c3c(C(F)(F)F)oc4c(O)c(O)ccc4c3=O)cn2)c1` [KH-4-79], the EC50 is around 14 µM in test [1] and 19 µM in test [2].
